From patent publication US9828351B2, “Enzyme interacting agents” (MONASH UNIVERSITY, priority 2014, dated 2017) come the findings set out here.

The target of one series is T1, recombinant human SphK2 (Homo sapiens, UniProt Q9NRA0).
T1 construct: purchased Johnson and Johnson
T1 sequence (Q9NRA0 1-654): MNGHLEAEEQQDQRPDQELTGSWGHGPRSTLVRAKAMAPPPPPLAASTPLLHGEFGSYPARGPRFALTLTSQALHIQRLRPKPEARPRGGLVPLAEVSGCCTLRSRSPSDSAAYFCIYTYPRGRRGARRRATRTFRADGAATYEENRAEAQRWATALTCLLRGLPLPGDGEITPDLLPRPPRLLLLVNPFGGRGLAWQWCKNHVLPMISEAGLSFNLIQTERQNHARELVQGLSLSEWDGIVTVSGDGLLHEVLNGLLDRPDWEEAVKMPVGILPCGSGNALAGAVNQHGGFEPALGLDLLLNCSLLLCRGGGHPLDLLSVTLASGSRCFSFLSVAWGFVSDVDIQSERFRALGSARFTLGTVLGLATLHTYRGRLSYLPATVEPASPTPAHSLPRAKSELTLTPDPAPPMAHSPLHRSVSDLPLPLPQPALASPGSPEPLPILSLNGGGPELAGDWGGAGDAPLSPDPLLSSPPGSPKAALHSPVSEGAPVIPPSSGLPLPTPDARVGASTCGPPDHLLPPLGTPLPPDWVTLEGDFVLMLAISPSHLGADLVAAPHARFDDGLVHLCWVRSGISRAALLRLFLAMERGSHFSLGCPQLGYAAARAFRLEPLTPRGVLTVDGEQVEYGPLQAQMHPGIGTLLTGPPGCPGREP
As to the kind of experiment: SphK2 activity assay (32P-labelled S1P production). The conditions noted are these: 10 μM compound, % of activity compared to control (DMSO vehicle only); for remaining activity at 10 µM: read-out: SphK2% actvity at 10 μm. The format is biochemical. The procedure: (§1) The SphK assays employed, measure SphK activity through the production of ^32P-labelled S1P following the addition of exogenous Sph and [γ^32P] ATP.
(§2) Activities of SphK1 and SphK2 were determined using identical assay conditions with the exception that SphK1 assays used 3 ng/assay recombinant his tagged human SphK1 (made in the lab in a baculovirus system using insect cells), while SphK2 assays used 30 ng/assay recombinant human SphK2 (purchased by Johnson and Johnson).
(§3) Compounds were dissolved in DMSO at 10 mM, the mixture was vortexed (and sonicated if necessary). Stock solutions were kept at 4° C. until used.
(§4) Aliquots were made containing 100 μM drug compound. These aliquots were then diluted in assay buffer: 100 mM tris/HCl pH 7.4, 100 mM NaCl, 1 mM sodium orthovanadate, 10 mM NaF to make up a 10 μM solution.
(§5) Recombinant enzyme was diluted in assay buffer (above) to make up a final concentration of 0.03 ng/μL (SphK1) or 0.33 ng/μL (SphK2).
(§6) 40 μL recombinant enzyme was added to an Eppendorf® Safe-Lock® microcentrifuge tube. This was followed by the addition of drug compound from prepared aliquots, before adding ATP, [γ^32P]ATP and Sph. Note: ATP stock is made up in 1M Tris pH 7.4 and 200 mM MgCl2. This allows ATP to complex with Mg and be available as a substrate.
(§7) The rest of the reaction mixture was then added to the enzyme sample (Table 1). All reactions were performed as triplicates.
(§8) Reaction mixture was prepared with sufficient volume to assay all of the required samples. To do this, each of the volumes shown was multiplied by n+1, where n is the number of samples to be assayed. Assay buffer used is made up of 100 mM tris/HCl pH 7.4, 100 mM NaCl, 1 mM sodium orthovanadate and 10 mM NaF.
(§9) The mixture was then incubated at 37° C. for 20 min (SphK1)/45 min (SphK2).
(§10) To the 100 μL assay mixture, add 270 μl of chloroform/methanol/conc. HCl (100:200:1).
(§11) 20 μL of 5 M KCl was then added to the assay mixture.
(§12) 70 μL of chloroform was added to create phase separation. The solution was vortexed to mix well.
(§13) The solution was then centrifuged for 5 min at 13,000×g to fully separate the phases.
(§14) The upper aqueous/methanol phase was separated by aspiration.
(§15) 50 μL of the remaining lower chloroform phase […] was applied onto the TLC plate by repeatedly spotting a few microliters of liquid (<5 mm diameter circle) between each sample spot with the pipette tip. The liquid was then allowed to absorb into the plate before drying with a stream of air.
(§16) The TLC plate was developed in a glass TLC developing tank with 1-butanol/ethanol/glacial acetic acid/H2O (8:2:1:2) until the mobile phase is within 1 cm of the top of the TLC plate.
(§17) The TLC plate was then exposed to a storage phosphor screen overnight. Storage phosphor screens work by capturing images produced by ionising radiation (e.g. ^32P). The phosphorimager stimulates the screen which uses lasers to convert the latent signal to light. Light is proportional to the amount of radioactivity in the sample. The image is then quantified using standard quantification software (ImageQuant™). Whatman paper with the assay mixture dilutions, was included to assist quantification of the phosphor signal.
(§18) Once the storage phosphor screen was read using the phosphorimager, S1P spots, which have an Rf of 0.7 with the mobile phase employed, were quantified.
(§19) The S1P spot intensity can be converted to the amount of phosphate transferred/min/mg protein.

The target in series [1] is T2, recombinant his tagged human SphK1 (Homo sapiens, UniProt Q9NYA1).
T2 construct: His tag; made in house; host or cells: insect cells (baculovirus system)
Nature of the series: SphK1 activity assay (32P-labelled S1P production). Format: biochemical. The note with it: 10 μM compound; % of activity compared to control (DMSO vehicle only). The procedure: as §1, §2, §3, §4, §5, §6, §7, §8, §9, §10, §11, §12, §13, §14, §15, §16, §17, §18, §19

Series [2] has as its target T3, Dihydroceramide Desaturase-1 (Des1) (Homo sapiens, UniProt O15121).
T3 construct: These modifications included the use of parental Jurkat cells; endogenous in cells; host or cells: parental Jurkat cells
T3 sequence (O15121 1-323): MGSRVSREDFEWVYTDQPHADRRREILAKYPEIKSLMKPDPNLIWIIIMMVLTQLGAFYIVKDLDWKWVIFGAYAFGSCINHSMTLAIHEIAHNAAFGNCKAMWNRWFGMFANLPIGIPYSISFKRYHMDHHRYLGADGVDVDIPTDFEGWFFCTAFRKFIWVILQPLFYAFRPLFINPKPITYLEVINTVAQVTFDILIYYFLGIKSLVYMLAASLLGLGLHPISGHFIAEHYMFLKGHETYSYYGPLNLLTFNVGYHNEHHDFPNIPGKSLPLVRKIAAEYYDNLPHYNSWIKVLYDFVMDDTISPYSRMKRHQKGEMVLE
Nature of the series: Dihydroceramide desaturase-1 (Des1) activity by HPLC in intact Jurkat cells labeled with DhCer-C6-NBD. Format: cell-based. The note with it: intact Jurkat cells; for IC50: read-out: Des 1 IC50. As to the method:
Measurement of Dihydroceramide Desaturase-1 (Des1) Activity:
These modifications included the use of parental Jurkat cells, 0.5% serum in the culture media, and cell harvesting via centrifugation at 500×g to maximise ceramide extraction. Extracted samples (50 ul) were analysed on a Waters HPLC coupled to a fluorescence detector using a 30 cm C18 reverse-phase column eluted with 1 ml/min 20% H2O and 80% acetonitrile, both with a 0.1% of trifluoroacetic acid.

Series [3] concerns PC3 prostate cancer cell lines. Nature of the series: Anticancer activity in PC3 cell line, CellTitre AQueous One cell viability assay. The format is cell-based. The conditions noted are these: concentration required to inhibit cell proliferation by 50%, 72 hours. As to the method:
Measurement of Anticancer Activity in PC3 Cell Line Assays
PC3 prostate cancer cell lines were cultured in DMEM (containing 10% fetal calf serum and penicillin-streptomycin).
Before treatment with drug compounds, cells were plated at 2,500 cells/well in 96 well plates and incubated at 37° C. with 5% CO2 in a humidified incubator for 24 hours prior. Cells were only plated in columns 3-10 and rows C—F to ensure uniform humidity and warmth across all wells. The remaining wells were filled with 100 μL of phosphate buffered saline.
Drug stock solutions (50 or 10 mM) were diluted×1000 in media to a final concentration of either 50 μM or 10 μM with a DMSO vehicle concentration of 0.1%.
Cell culture supernatants were aspirated and replaced with drug containing media. Drug treatments were performed in duplicate wells, while potential plate layout-specific variation in cell growth was accounted for by addition of a vehicle control (0.1% DMSO).
Cells were then incubated with drug compounds at 37° C. with 5% CO2 in a humidified incubator for 72 hours prior to assay.
Media was diluted with CellTitre AQueous One Solution (Promega, Australia; Cat # G3580) according to manufacturer's instructions to produce a final concentration of 317 μg/mL.
Cell culture supernatants were then aspirated from wells and replaced with 100 μL of CellTitre solution. Triplicate cell-free control wells containing only CellTitre solution were also included in each assay.
Cells were then incubated at 37° C. with 5% CO2 in a humidified incubator for 1 hour at which time absorbance was read at 490 nm with an EnVision microplate reader (Perkin Elmer, Australia).
When analysing data, background absorbance (taken from cell-free control wells) was subtracted from each reading. […] For each drug concentration the mean (±SEM) is calculated and graphed using GraphPad Prism (version 5). A sigmoidal curved is fitted to the data and used to calculate the IC50 of each compound.

The subject of series [4] is Neonatal cardiac fibroblasts (NCFs) collagen synthesis. Nature of the series: Inhibition of NCF collagen synthesis by 3H-proline incorporation. The format is cell-based.
Method: Neonatal cardiac fibroblasts (NCFs) were isolated as previously reported (Lekawanvijit, S. Wang, B. H., Krum, H. Eur Heart J. 2010, 31(14), 1771-9). After isolation, NCF (passage 0) were placed into T75 cell culture flasks (BD Falcon, NSW, Australia) and maintained in high-glucose (25 mM) DMEM containing 5.33 mM KCl (Invitrogen, Mount Waverley, Vic, Australia) in the presence of 1% antibiotic/antimycotic (Invitrogen, Mount Waverley, Vic, Australia) and 10% fetal bovine serum (FBS) (JRH biosciences). Cells were incubated at 37° C. with 5% CO2 for overnight and then the media were changed. NCF confluence was checked microscopically and NCF were sub-cultured. After removing media and 3× wash with warm 1×PBS, 2 ml of warm 0.05% trypsin-EDTA was added to each flask. Flasks were placed back into the 37° C. incubator for 1-2 minutes to allow cells to lift off the surface of the flasks. Trypsin was inactivated by adding 8 ml of DMEM containing 10% FBS. NCF (passage 1) were centrifuged for 6 minutes at 1300 rpm at RT. Cell pellets was washed 3× with DMEM+10% FBS and resuspended in DMEM+10% FBS. Cells were then placed into new flasks and incubated at 37° C. with 5% CO2 for 48 hours.
To seed NCF, steps from trypsinization to resuspension were repeated as above. NCF (passage 2) were counted with the ‘Countess’ cell counter. […]
A further series has as its system MCF7 breast cancer cells. Nature of the series: Anticancer activity in MCF7 cell lines, MTS assay. The format is cell-based. The note with it: Homo sapiens, concentration required to inhibit cell proliferation by 50%, 72 hrs, read-out: MCF-7 IC50. The procedure: Measurement of Anticancer Activity in MCF7 Cell Lines
MCF7 breast cancer cells were treated with the test compounds and incubated at 37° C., 5% CO2 in air for 72 hrs. The MTS assay was conducted with addition of prepared MTS solution followed by 2 hr incubation, an OD reading and the raw data recorded. The data was managed in tabular form, values adjusted for vehicle control, and the adjusted values graphed as a sigmoidal curve and the EC50 value calculated.
In general terms: Formazan colour is commonly taken as a measure of viable cells.

The target in series [5] is T4, SphK1a in Flpln-SphK1a cells (Flp-In T-Rex HEK293) (Homo sapiens, UniProt Q9NYA1).
T4 construct: expressed in transfected cells; host or cells: Flp-In T-Rex HEK293 cells, doxycycline-induced
Nature of the series: SphK1 proteasomal degradation study (immunoblotting). The format is cell-based. The note with it: 10 μM test compound, 24 h. As to the method: These studies were performed as previously described for the drug SKI-II (C. Loveridge et al. J. Biol. Chem. 2010, 285, 38891). […] After 24 h cells were treated with 10 μm test compound, 10 μm MG132, or both. DMSO was used as the vehicle control. After a further 24 h, cells were harvested, lysed, and subjected to SDS-PAGE and immunoblotting with anti-FLAG (Sigma), anti-ERK1/2 (Promega), or anti-a-tubulin (Abcam) antibodies.

T2 sequence (Q9NYA1 whole entry): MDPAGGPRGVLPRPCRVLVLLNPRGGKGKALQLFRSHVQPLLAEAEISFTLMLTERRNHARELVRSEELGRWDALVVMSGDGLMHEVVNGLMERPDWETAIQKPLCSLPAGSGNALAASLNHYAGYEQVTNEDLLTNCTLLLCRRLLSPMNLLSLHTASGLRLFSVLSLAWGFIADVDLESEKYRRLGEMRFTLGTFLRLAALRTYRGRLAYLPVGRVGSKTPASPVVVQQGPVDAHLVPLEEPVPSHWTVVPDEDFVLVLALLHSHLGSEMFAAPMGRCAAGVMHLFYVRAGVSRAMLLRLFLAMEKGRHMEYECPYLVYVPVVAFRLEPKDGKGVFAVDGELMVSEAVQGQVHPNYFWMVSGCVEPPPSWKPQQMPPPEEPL
T4 sequence (Q9NYA1 whole entry): as above

In general, IC50 refers to the concentration that inhibits the measured activity by half. `Clc1ccc(-c2nnc(Nc3ccc(-c4nn[nH]n4)cc3)o2)cc1` [Example E-27, 5-(4-Chlorophenyl)-N-[4-(1H-tetrazol-5-yl)phenyl]-1,3,4-oxadiazol-2-amine]: the remaining activity at 10 µM on recombinant human SphK2 lay in the range of 50 to 80%. Also, the activity at 10 µM in series [1] is 20 to 50%. Also, the “Des 1 IC50” value in series [2] was “inactive”. Moreover, in series [3] (Homo sapiens, PC-3), the IC50 fell in the range of 10 to 100 µM.

“(Z)-4-(5-(4-Chlorophenyl)-1,3,4-oxadiazol-2-yl)-N′-hydroxybenzimidamide [Example E-14]”: the “SphK2% actvity at 10 μm” value on recombinant human SphK2 is listed as 80-100%. For the same compound, in series [1], the “SphK1% activity at 10 μm” value is listed as 100-150%. The compound further registered an IC50 in series [3] greater than 100 µM. Further, the “EC (effective concentration: concentration required to reduce collagen synthesis to a level equal to or below unstimulated control)” value in series [4] is 0.5 to 5 µM.

For the compound `O=C(Nc1ccc(O)cc1)c1nc(-c2ccc(Cl)cc2)cs1` [Example E-5, 4-(4-Chlorophenyl)-N-(4-hydroxyphenyl)thiazole-2-carboxamide], the IC50 lay in the range of 10 to 100 µM in series [3] (Homo sapiens, PC-3) and 10 to 100 µM in the series with MCF7 breast cancer cells.

As to `O=S1NC(c2ccc(Nc3nnc(-c4ccc(Cl)cc4)o3)cc2)=NO1` (stereo not drawn) [Example E-28, 5-(4-Chlorophenyl)-N-[4-(2-oxido-3H-1,2,3,5-oxathiadiazol-4-yl)phenyl]-1,3,4-oxadiazol-2-amine], the remaining activity at 10 µM on recombinant human SphK2 was in the range of 5 to 20%. For the same compound, the activity at 10 µM in series [1] was less than 1%. The IC50 lay within 1 to 10 µM in series [2] and 10 to 100 µM in series [3] (Homo sapiens, PC-3).

The term melting point denotes the temperature, or range, at which the solid turns liquid. `Oc1ccc(Nc2nnc(-c3ccccc3)o2)cc1` [Example E-25, 4-((5-Phenyl-1,3,4-oxadiazol-2-yl)amino)phenol] showed a melting point of 231 °C. In addition, the IC50 in series [2] lay within 1 to 10 µM.

Consider “3-(4-(5-(4-Chlorophenyl)-1,3,4-oxadiazol-2-yl)phenyl)-1,2,4-oxadiazol-5(4H)-one [Example E-15]”, for which the “SphK2% actvity at 10 μm” value at recombinant human SphK2 is given as 80-100%. Moreover, the “SphK1% activity at 10 μm” value in series [1] was 50-80%. In addition, the IC50 in series [3] fell in the range of 0.1 to 1 µM. Also, in series [5], the “% SphK1a degradation at 10 μM” value is recorded as 50%.

As to “3-(4-((5-(4-Chlorophenyl)-1,3,4-oxadiazol-2-yl)amino)phenyl)-1,2,4-oxadiazol-5(4H)-one [Example E-16]”, the “SphK2% actvity at 10 μm” value at recombinant human SphK2 is recorded as 100-150%. In series [1], the “SphK1% activity at 10 μm” value was 100-150%. Besides, in series [2], the “Des 1 IC50” value was “inactive”. Moreover, the IC50 in series [3] is 0.1 to 1 µM.

Take `O=C(NCc1ccc(-c2nnc(-c3ccc(Cl)cc3)o2)cc1)[C@H]1NCC[C@@H]1O` [Example E-18, (2S,3S)-2-((4-(5-(4-chlorophenyl)-1,3,4-oxadiazol-2-yl)benzyl)carbamoyl)-3-hydroxypyrrolidin-1-ium chloride]: the remaining activity at 10 µM on recombinant human SphK2 is 80 to 100%. Also, the activity at 10 µM in series [1] was in the range of 50 to 80%. The compound further returned an IC50 in series [3] (Homo sapiens, PC-3) greater than 100 µM.
